{"source": "patent US20230391868A1", "about": "“COMPOSITIONS FOR AND METHODS OF TREATING CANCER” (The George Washington University, priority 2022, published 2023)", "key": {"SIRPα": {"test_system": "SIRPα", "experiment": "SIRPα gene expression in mouse macrophages by qRT-PCR", "assay_type": "cell-based", "conditions": "A31A7 macrophages and BMDMs, unpolarized and polarized, qRT-PCR (FIG. 2A)", "procedure": "Bone marrow-derived macrophages were isolated from the femurs and tibias of wild-type C57/Bl6, HDAC6 knockout (C57BL/6J-Hdac6em2Lutzy/J, 029318, Jackson Laboratory), or UBC-GFP (C57BL/6-Tg(UBC-GFP)30Scha/J, 004353, Jackson Laboratory). Isolated bone marrow cells were cultured in RPMI 1640 complete medium with 10% FBS, 1% NEAA, and 1% penicillin-streptomycin in 5% CO2 at 37° C. Medium was supplemented with murine recombinant M-CSF (20 ng/mL, 576404, Biolegend) to differentiate monocytes into macrophages. Three days after bone marrow isolation, undifferentiated and floating cells were washed with PBS and replaced with fresh RPMI media. A3.1A7 cells and BMDMs were pretreated with 5 μM of HDAC6 inhibitor NextA or vehicle prior to adding polarizing cytokines. […]\nqRT-PCR: Total RNA was extracted from cells using the Trizol reagent according to manufacturer's instructions (ThermoFisher Scientific, 15596018). […] RNA was quantified using a NanoDrop One Spectrophotometer (ThermoFisher Scientific). […] Target mRNA was quantified using MyIQ single-color real-time PCR detection system from Bio-Rad (Bio-Rad, Hercules, CA) and iQ SYBR green Supermix (Bio-Rad, 1708882). […] Quantification is expressed in arbitrary units and target mRNA levels were normalized to R-actin expression."}, "primary mouse BMDMs": {"test_system": "primary mouse BMDMs", "experiment": "Pro-phagocytic signal gene expression in BMDMs", "assay_type": "cell-based", "procedure": "Bone marrow-derived macrophages were isolated from the femurs and tibias of wild-type C57/Bl6, HDAC6 knockout (C57BL/6J-Hdac6em2Lutzy/J, 029318, Jackson Laboratory), or UBC-GFP (C57BL/6-Tg(UBC-GFP)30Scha/J, 004353, Jackson Laboratory). Isolated bone marrow cells were cultured in RPMI 1640 complete medium with 10% FBS, 1% NEAA, and 1% penicillin-streptomycin in 5% CO2 at 37° C. Medium was supplemented with murine recombinant M-CSF (20 ng/mL, 576404, Biolegend) to differentiate monocytes into macrophages. Three days after bone marrow isolation, undifferentiated and floating cells were washed with PBS and replaced with fresh RPMI media. A3.1A7 cells and BMDMs were pretreated with 5 μM of HDAC6 inhibitor NextA or vehicle prior to adding polarizing cytokines.\nqRT-PCR: Total RNA was extracted from cells using the Trizol reagent according to manufacturer's instructions (ThermoFisher Scientific, 15596018). Samples were then processed immediately or stored at −80° C. RNA was quantified using a NanoDrop One Spectrophotometer (ThermoFisher Scientific). The 260/280 ratios were routinely over 1.8. […] Target mRNA was quantified using MyIQ single-color real-time PCR detection system from Bio-Rad (Bio-Rad, Hercules, CA) and iQ SYBR green Supermix (Bio-Rad, 1708882). […] Quantification is expressed in arbitrary units and target mRNA levels were normalized to R-actin expression."}, "WM164 melanoma cells": {"test_system": "WM164 melanoma cells", "experiment": "Flow cytometry-based phagocytosis assay, THP1-derived macrophages with WM164 cells", "assay_type": "cell-based, human", "conditions": "co-culture with WM164 melanoma cells (FIG. 4J)"}}}
{"smiles": "CCCCN(Cc1ccc(C(=O)NO)cc1)C(=O)Nc1ccccc1", "note": "[NextA, Nexturastat A]", "values": [{"measurement": "Sirpa expression at the transcriptional level", "setting": "SIRPα", "result": "significantly downregulated"}, {"measurement": "Sirpa expression at the transcriptional level", "setting": "SIRPα; listed as Nexturastat A", "result": "downregulated"}, {"measurement": "expression of Lrp1, Cd36, and Mfge8", "setting": "primary mouse BMDMs", "result": "significant increase"}, {"measurement": "phagocytosis by unpolarized THP-1 derived macrophages", "setting": "WM164 melanoma cells", "result": "significantly more phagocytic"}]}
